Positions count from the first letter of the chain named.
Assays:
[1] = target: T1, DP2 (Homo sapiens, UniProt P04440+P20036, A65V/A84D/A85E/K98E); test: T2 cell-based competitive binding assay; conditions: T2 cells transduced with DP2; reference peptide Oxy271-287
T1 sequence (P20036 29-260): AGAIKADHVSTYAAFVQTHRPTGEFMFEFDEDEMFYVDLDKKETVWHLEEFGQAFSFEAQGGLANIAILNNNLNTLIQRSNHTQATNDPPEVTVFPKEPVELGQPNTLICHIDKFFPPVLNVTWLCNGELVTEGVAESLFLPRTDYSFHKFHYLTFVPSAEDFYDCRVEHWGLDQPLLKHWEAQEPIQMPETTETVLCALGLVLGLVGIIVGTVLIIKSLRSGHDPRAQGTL
T1 sequence (P04440 30-258 A65V/A84D/A85E/K98E): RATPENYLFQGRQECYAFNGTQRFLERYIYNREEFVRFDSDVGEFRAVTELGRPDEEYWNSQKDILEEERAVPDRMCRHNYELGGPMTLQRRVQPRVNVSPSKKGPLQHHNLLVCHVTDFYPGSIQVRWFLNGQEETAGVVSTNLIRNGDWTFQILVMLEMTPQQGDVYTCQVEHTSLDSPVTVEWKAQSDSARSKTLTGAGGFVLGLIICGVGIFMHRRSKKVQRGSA

[2] = target: T2, DP4 (Homo sapiens, UniProt P04440+P20036); test: T2 cell-based competitive binding assay; conditions: T2 cells transduced with DP4; reference peptide Oxy271-287
T2 construct: expressed in transfected cells; host or cells: T2 cells, retrovirally transduced (pMX vector)
T2 sequence (P20036 29-260): T1 sequence (P20036 29-260)
T2 sequence (P04440 30-258): T1 sequence (P04440 30-258 A65V/A84D/A85E/K98E) with V36A, D55A, E56A, E69K

Sequence | IC50 value, displacement of reference peptide [1] | IC50 value, displacement of reference peptide [2]
CMTWNQMNL [WT1235-243, known HLA-A2 restricted peptide, negative control, reference compound] | failed to displace reference peptide at any tested concentration | failed to displace reference peptide at any tested concentration
PGCNKRYFKLSHLQMHSRKHT [WT1328-348] | comparable to TT947-967 | comparable to TT947-967

Reference: patent US20260042827A1, “ANTI-WT1 ANTIGEN-BINDING PROTEINS AND USES THEREOF” (UNIVERSITY HEALTH NETWORK, priority 2022, published 2026)
